Results reported in PMC11492034, “The MRGPRX2-substance P pathway regulates mast cell migration” (iScience, 2024).

Tests used:
MC progenitors = settings: LTB4: ref 38, 40, 42; PGE2: no ref at this clause; cited from earlier work
asthmatic subjects = settings: cited from earlier work
neurokinin 1 receptor = settings: 100 nM aprepitant, SP 0.03-10, immature mast cells, n=1
Experimental: Chemotaxis assays were carried out using 8 μm pore ChemoTX™ assay plates (Neuroprobe, Gaithersburg, USA). Cells were first loaded with 5 μM Calcein-AM for 30 mins, 37°C/5% CO2 in cell culture medium prior to being washed and resuspended at a concentration of 1 x 10^6.ml^-1. Where appropriate cells were pre-incubated with Compound A or vehicle control. Chemoattractants were prepared in cell culture medium and placed in the lower chamber. The plate was constructed and 50 μl cell suspension applied to the upper part of the membrane of each well. No chemoattractant and equal chemoattractant on both sides of the chamber were used to control for random cell movement. The plate was incubated for 6 hours 37°C/5% CO2 before analysis of migrated cells, as follows. Cells were removed from above the membrane by pipetting, the membrane was then washed with PBS buffer containing 2mM EDTA and wiped using a rubber filter wiper (Neuroprobe). PBS/EDTA was applied to the upper side of the membrane and the plate incubated for 30 mins at 4°C before again being wiped. The plate was then centrifuged at 500 x g for 5 mins to capture cells attached to the underside of the membrane. […] Total migrated cells were counted as Live/Dead™-/Calcein-AM+/CD117+ cells or Live/Dead™-/Calcein-AM+ cells in each sample. […]

MRGPRX2 [1] = target: T1, MRGPRX2 (Homo sapiens, UniProt Q96LB1); settings: 15 min; 1 µM (PACAP1-38, PACAP1-27, PAMP9-20, VIP) or 10 µM (CGRP); concentration response 0.01-100 µM, n=1 of a mix of 2 donors
Experimental: Degranulation was assessed by labelling of externalised CD63 (clone H5C6) as previously established[3] in response to substance P (Genscript, Oxford, UK), IgE/anti-IgE, anti-FcεRIα (clone AER37, Biolegend, London, UK) or C3a (CompTech, Tyler, USA). In all cases, cells were washed in PBS prior to incubation with live/dead™ reagent before analysis. […] Fc blocking reagent and antibodies were added, diluted in 1x permeabilisation buffer (BD Bioscience, Winnersh, UK), cells were washed and incubated with goat anti-mouse polyclonal antibodies labelled with PE or APC (Biolegend, London, UK). All cells were analysed on FACSymphony A5 or LSRFostessa instruments, and FlowJo software (BD Bioscience, Winnersh, UK). CD63 externalisation was used as a surrogate for MC degranulation according to established methodology.[52]^,[53]^,[54]
Putative MRGPRX2 ligand activation of MRGPRX2 positive cells.
(A) Gating showing degranulation, as measured by CD63 externalisation (x-axis), vs MRGPRX2 expression (y-
axis) after 15 mins of treatment with labelled agonists at 1µM (PACAP1-38, PACAP1-27, PAMP9-20, VIP) or
Percentage of cells in each quadrant is shown.
(B) Degranulation of mast cells in response to agonists (0.01-100 µM) after 15 minutes of application, as
shown. Data are n=1 of a mix of 2 donors.

MRGPRX2 [2] = target: T1, MRGPRX2; settings: cited from earlier work

T1 sequence (Q96LB1 whole entry): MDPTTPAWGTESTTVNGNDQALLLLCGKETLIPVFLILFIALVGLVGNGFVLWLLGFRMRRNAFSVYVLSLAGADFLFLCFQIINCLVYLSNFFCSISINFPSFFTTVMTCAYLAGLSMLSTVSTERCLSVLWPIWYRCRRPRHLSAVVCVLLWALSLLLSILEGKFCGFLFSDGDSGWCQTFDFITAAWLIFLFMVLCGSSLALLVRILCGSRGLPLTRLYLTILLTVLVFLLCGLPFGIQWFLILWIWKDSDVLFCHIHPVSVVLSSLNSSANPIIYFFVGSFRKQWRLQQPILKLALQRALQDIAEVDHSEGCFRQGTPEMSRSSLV

Q: With `CCCCC/C=C\C[C@@H](O)/C=C/C=C/C=C\[C@@H](O)CCCC(=O)O` [LTB4] as the molecule, how does the “effect on MC migration” value (MC progenitors) read?
A: The value was “known to attract MC progenitors, recruiting them from the circulation, and lose its effect upon MC maturation”.

Q: For `CCCCC[C@H](O)/C=C/[C@H]1[C@H](O)CC(=O)[C@@H]1C/C=C\CCCC(=O)O` [PGE2], which “effect on MC migration” value (MC progenitors) is on record?
A: The value was “more prone to regulating cell movement within the tissue”.

Q: With `CSCC[C@H](NC(=O)[C@H](CC(C)C)NC(=O)CNC(=O)[C@H](Cc1ccccc1)NC(=O)[C@H](Cc1ccccc1)NC(=O)[C@H](CCC(N)=O)NC(=O)[C@H](CCC(N)=O)NC(=O)[C@@H]1CCCN1C(=O)[C@H](CCCCN)NC(=O)[C@@H]1CCCN1C(=O)[C@@H](N)CCCN=C(N)N)C(N)=O` [SP] as the molecule, how does the “bronchoconstriction in asthmatic subjects” value (asthmatic subjects) read?
A: The value was “does not induce bronchoconstriction”.

Q: For `C[C@@H](O[C@H]1OCCN(Cc2n[nH]c(=O)[nH]2)[C@H]1c1ccc(F)cc1)c1cc(C(F)(F)F)cc(C(F)(F)F)c1` [aprepitant], which “inhibition of SP-induced chemotaxis” value (neurokinin 1 receptor) is on record?
A: Its value is “did not”.

Q: With CGRP as the molecule, how does the “CD63 degranulation, neuropeptide” value (MRGPRX2 [1]) read?
A: Its value is “minimal effect”.

Q: For LL-37, which “binding to MRGPRX2” value (MRGPRX2 [2]) is on record?
A: Its value is “binds”.

Q: With PAMP-20 as the molecule, how does the “binding to MRGPRX2” value (MRGPRX2 [2]) read?
A: Its value is “binds”.

Q: For cortistatin-14, which “binding to MRGPRX2” value (MRGPRX2 [2]) is on record?
A: Its value is “binds”.
